These results are taken from patent US20250171462A1 (NICO Therapeutics, Inc., priority 2022, published 2025).

The target in the test is T1, full-length SARM1 (FL-SARM1) (Homo sapiens, UniProt Q6SZW1).
T1 sequence (Q6SZW1 28-724): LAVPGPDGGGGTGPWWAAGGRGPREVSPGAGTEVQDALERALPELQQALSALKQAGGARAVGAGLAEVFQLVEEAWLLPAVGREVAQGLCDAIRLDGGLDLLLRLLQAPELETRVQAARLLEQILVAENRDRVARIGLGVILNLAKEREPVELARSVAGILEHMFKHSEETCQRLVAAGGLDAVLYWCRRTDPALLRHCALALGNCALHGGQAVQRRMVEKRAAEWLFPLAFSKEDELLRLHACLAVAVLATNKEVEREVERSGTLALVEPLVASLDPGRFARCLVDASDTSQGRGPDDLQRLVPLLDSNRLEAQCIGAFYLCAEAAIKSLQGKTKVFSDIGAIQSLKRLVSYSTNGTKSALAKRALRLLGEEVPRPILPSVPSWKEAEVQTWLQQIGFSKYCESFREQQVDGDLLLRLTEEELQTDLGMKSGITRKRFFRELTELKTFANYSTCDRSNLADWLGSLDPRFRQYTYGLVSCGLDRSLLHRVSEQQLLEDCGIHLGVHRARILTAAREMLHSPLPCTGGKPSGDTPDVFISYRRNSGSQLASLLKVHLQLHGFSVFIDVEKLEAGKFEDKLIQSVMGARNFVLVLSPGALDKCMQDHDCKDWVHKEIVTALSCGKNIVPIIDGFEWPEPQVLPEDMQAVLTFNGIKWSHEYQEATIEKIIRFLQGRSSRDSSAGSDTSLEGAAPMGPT
Kind of test: FL-SARM1 cellular lysate assay (NAD/NADH-Glo detection of remaining NAD+, NMN-activated).

[1] abbreviates: Activity (IC50 class), 11 point curve.
Setting [2] is: Activity (μM) (IC50), 11 point curve.
Where [3] appears, read: read-out: Activity (IC50 class), 11 point curve.

Like-named read-outs stand apart in the source and are kept apart here.

A word on the IC50: it is the concentration that gives 50% inhibition. In the case of `Cc1ccc(NC(=O)N2CC3CC3(c3ccccc3)C2)cc1-c1ccccn1` (stereo not shown) [Example 94, N-(4-methyl-3-pyridin-2-ylphenyl)-1-phenyl-3-azabicyclo[3.1.0]hexane-3-carboxamide], the IC50 is over 10 µM under setting [1] and 15 µM under setting [2].
For `Cc1ccc(NC(=O)N2CCC[C@@H]2c2ccccc2)cc1-c1ccccn1` [Example 95, (2R)-N-(4-methyl-3-pyridin-2-ylphenyl)-2-phenylpyrrolidine-1-carboxamide], in that order: 1 to 10 µM and 1.4 µM.
As for `Cc1ccc(NC(=O)N2CCC[C@H]2c2ccccc2)cc1-c1ccccn1` [Example 96, (2S)-N-(4-methyl-3-pyridin-2-ylphenyl)-2-phenylpyrrolidine-1-carboxamide], the IC50 is, setting by setting: under setting [2], 0.7 µM; under setting [3], 0.0001 to 1 µM.
As for `Cc1ccc(NC(=O)N2CC3CC3(C(F)(F)F)C2)cc1-c1ccccn1` (stereo not shown) [Example 97, N-(4-methyl-3-pyridin-2-ylphenyl)-1-(trifluoromethyl)-3-azabicyclo[3.1.0]hexane-3-carboxamide], the IC50 is over 10 µM under setting [1] and 11 µM under setting [2].
For `Cc1ccc(NC(=O)N2CCCC3CC32)cc1-c1ccccn1` (stereo not shown) [Example 99, N-(4-methyl-3-pyridin-2-ylphenyl)-2-azabicyclo[4.1.0]heptane-2-carboxamide], in that order: over 10 µM and 18 µM.
`Cc1ccc(NC(=O)N2C3CCC2c2ncccc23)cc1-c1ccccn1` (stereo not shown) [Example 100, N-(4-methyl-3-pyridin-2-ylphenyl)-3,11-diazatricyclo[6.2.1.02,7]undeca-2,4,6-triene-11-carboxamide]: the IC50 was 0.6 µM under setting [2] and 0.0001 to 1 µM under setting [3].
As for `Cc1ccc(NC(=O)N2CCc3ccccc3C2)cc1-c1ccccn1` [Example 101, N-(4-methyl-3-pyridin-2-ylphenyl)-3,4-dihydro-1H-isoquinoline-2-carboxamide], the IC50 reads like this: under setting [1], 1 to 10 µM; under setting [2], 10 µM.
Turning to `Cc1ccc(NC(=O)N2CCOc3ccccc3C2)cc1-c1ccccn1` [Example 102, N-(4-methyl-3-pyridin-2-ylphenyl)-3,5-dihydro-2H-1,4-benzoxazepine-4-carboxamide], the IC50 runs as follows: under setting [2], 0.9 µM; under setting [3], 0.0001 to 1 µM.
For `Cc1ccc(NC(=O)C2C3CCC2CC3)cc1-c1cccnn1` (stereo not shown) [Example 103, N-(4-methyl-3-pyridazin-3-ylphenyl)bicyclo[2.2.1]heptane-7-carboxamide], in that order: 0.5 µM and 0.0001 to 1 µM.
Regarding `Cc1ccc(NC(=O)C2C3CCC2CC3)cc1-c1ncccn1` (stereo not shown) [Example 106, N-(4-methyl-3-pyrimidin-2-ylphenyl)bicyclo[2.2.1]heptane-7-carboxamide], the IC50 is 1 to 10 µM under setting [1] and 1 µM under setting [2].
Regarding `Cc1ccc(NC(=O)C2CCC2C)cc1-c1ccccn1` (stereo not shown) [Example 112, 2-methyl-N-(4-methyl-3-pyridin-2-ylphenyl)cyclobutane-1-carboxamide], the IC50 reads like this: under setting [1], 1 to 10 µM; under setting [2], 1.7 µM.
In the case of `Cc1ccc(NC(=O)C2CCCC2C)cc1-c1ccccn1` (stereo not shown) [Example 114, 2-methyl-N-(4-methyl-3-pyridin-2-ylphenyl)cyclopentane-1-carboxamide], the IC50 by setting is: under setting [2], 0.7 µM; under setting [3], 0.0001 to 1 µM.
`Cc1ccc(NC(=O)C2(O)CCCC2)cc1-c1ccccn1` [Example 115, 1-hydroxy-N-(4-methyl-3-pyridin-2-ylphenyl)cyclopentane-1-carboxamide]: the IC50 runs as follows: under setting [1], over 10 µM; under setting [2], 36 µM.
With `Cc1ccc(NC(=O)C2C[C@H]3C[C@@H]23)cc1-c1ccccn1` (stereo partly drawn) [Example 117, cis-N-(4-methyl-3-pyridin-2-ylphenyl)bicyclo[2.1.0]pentane-2-carboxamide], the IC50 by setting is: under setting [1], 1 to 10 µM; under setting [2], 4.6 µM.
For `Cc1ccc(NC(=O)C2CC3(CC3)C2)cc1-c1ccccn1` [Example 119, N-(4-methyl-3-pyridin-2-ylphenyl)spiro[2.3]hexane-5-carboxamide], in that order: 1 to 10 µM and 1.9 µM.
As for `Cc1ccc(NC(=O)C2C3CCC2C3)cc1-c1ccccn1` (stereo not shown) [Example 123, N-(4-methyl-3-pyridin-2-ylphenyl)bicyclo[2.1.1]hexane-5-carboxamide], the IC50 is, setting by setting: under setting [2], 0.3 µM; under setting [3], 0.0001 to 1 µM.
The compound `O=C(Nc1ccc(C(F)(F)F)c(-c2ccc(F)cn2)c1)[C@@H]1CC1(F)F` [Example 125, (1S)-2,2-difluoro-N-[3-(5-fluoropyridin-2-yl)-4-(trifluoromethyl)phenyl]cyclopro-pane-1-carboxamide] registered an IC50 under setting [1] of 1 to 10 µM and a 50% inhibitory concentration (IC50) under setting [2] of 3.5 µM.
For the compound `O=C(Nc1ccc(C(F)F)c(-c2ccccn2)c1)[C@@H]1CC1(F)F` [Example 126, (1S)-N-[4-(difluoromethyl)-3-pyridin-2-ylphenyl]-2,2-difluorocyclopropane-1-carboxamide], the half-maximal inhibitory concentration (IC50) by setting is: under setting [1], 1 to 10 µM; under setting [2], 2.5 µM.
Taken in the same sequence, the figures for `C[C@H]1CC1c1ccc(NC(=O)[C@@H]2CC2(F)F)cc1-c1ccccn1` (stereo partly drawn) [Example 127, (1S)-2,2-difluoro-N-[4-[trans-2-methylcyclopropyl]-3-pyridin-2-ylphenyl]cyclopropane-1-carboxamide] were 1 to 10 µM and 5.6 µM.
Taken in the same sequence, the figures for `Cc1ccc(NC(=O)C23CC(C(F)(F)F)(C2)C3)cc1-c1ccccn1` [Example 129, N-(4-methyl-3-pyridin-2-ylphenyl)-3-(trifluoromethyl)bicyclo[1.1.1] pentane-1-carboxamide] were 1 to 10 µM and 9.1 µM.
Taken in the same sequence, the figures for `O=C(Nc1cccc(-c2ccccn2)c1)[C@@H]1CC1(F)F` [Example 131, (1S)-2,2-difluoro-N-(3-pyridin-2-ylphenyl)cyclopropane-1-carboxamide] were over 10 µM and 18 µM.
With `Cc1ccc(NC(=O)C2CN(CC(F)(F)F)C2)cc1-c1ccccn1` [Example 132, N-(4-methyl-3-pyridin-2-ylphenyl)-1-(2,2,2-trifluoroethyl)azetidine-3-carboxamide], the IC50 is over 10 µM under setting [1] and 43 µM under setting [2].
Taken in the same sequence, the figures for `CC1(c2ccc(NC(=O)[C@@H]3CC3(F)F)cc2-c2ccccn2)CC1` [Example 133, (1S)-2,2-difluoro-N-[4-(1-methylcyclopropyl)-3-pyridin-2-ylphenyl]cyclopropane-1-carboxamide] were over 10 µM and 24 µM.
As for `Cc1ccc(NC(=O)CN2C(=O)CCOc3ccccc32)cc1-c1ccccn1` [Example 134, N-(4-methyl-3-pyridin-2-ylphenyl)-2-(4-oxo-2,3-dihydro-1,5-benzoxazepin-5-yl)acetamide], the IC50 is, setting by setting: under setting [1], 1 to 10 µM; under setting [2], 1.9 µM.
For `Cc1ccc(NC(=O)[C@H]2C[C@@H](OC(F)(F)F)C2)cc1-c1ccccn1` [Example 136, cis-N-(4-methyl-3-pyridin-2-ylphenyl)-3-(trifluoromethoxy)cyclobutane-1-carboxamide], in that order: 1 to 10 µM and 6.4 µM.
Taken in the same sequence, the figures for `Cc1ccc(NC(=O)C(C)(C)C)cc1-c1ccccn1` [Example 141, 2,2-dimethyl-N-(4-methyl-3-pyridin-2-ylphenyl)propanamide] were over 10 µM and 19 µM.
Taken in the same sequence, the figures for `Cc1ccc(NC(=O)[C@@H]2CC2(F)F)cc1-c1ccccn1` [Example 142, (1S)-2,2-difluoro-N-(4-methyl-3-pyridin-2-ylphenyl)cyclopropane-1-carboxamide] were 1 to 10 µM and 2.6 µM.
In the case of `Cc1ccc(NC(=O)CN2C(=O)COCc3ccccc32)cc1-c1ccccn1` [Example 144, N-(4-methyl-3-pyridin-2-ylphenyl)-2-(2-oxo-5H-4,1-benzoxazepin-1-yl)acetamide], the half-inhibitory concentration (IC50) is, setting by setting: under setting [1], 1 to 10 µM; under setting [2], 9.7 µM.
For `N#CCc1ccc(NC(=O)[C@@H]2CC2(F)F)cc1-c1ccccn1` [Example 145, (1S)-N-[4-(cyanomethyl)-3-pyridin-2-ylphenyl]-2,2-difluorocyclopropane-1-carboxamide], in that order: 1 to 10 µM and 5 µM.
Take `CCc1ccc(-c2cc(NC(=O)[C@@H]3CC3(F)F)ccc2C)nc1` [Example 146, (1S)-N-[3-(5-ethylpyridin-2-yl)-4-methylphenyl]-2,2-difluorocyclopropane-1-carboxamide]: the IC50 runs as follows: under setting [1], 1 to 10 µM; under setting [2], 7.3 µM.
Regarding `Cc1ccc(NC(=O)C2CC3CCC2C3)cc1-c1ccccn1` (stereo not shown) [Example 147, N-(4-methyl-3-pyridin-2-ylphenyl)bicyclo[2.2.1]heptane-2-carboxamide], the IC50 was 0.2 µM under setting [2] and 0.0001 to 1 µM under setting [3].
Consider `O=C(Nc1ccc(-c2ccccc2)c(-c2ccccn2)c1)[C@@H]1CC1(F)F` [Example 148, (1S)-2,2-difluoro-N-(4-phenyl-3-pyridin-2-ylphenyl)cyclopropane-1-carboxamide], for which the IC50 under setting [1] is over 10 µM and half-maximal inhibition under setting [2] (IC50) was put at 38 µM.
